The nature of data set [1]: Lipophilicity determination by HPLC. Type of data set: physicochemical. As to conditions: for log D6.5: HPLC C18, MeOH 72%/acetate-buffered saline pH 6.5 28%; for log D7.4: HPLC C18, MeOH 72%/acetate-buffered saline pH 7.4 28%; for log k: logarithm of capacity factor, HPLC C18, MeOH 72%/H2O 28%. The text has this:
. A chromatographic column Symmetry® C18 5 μm, 4.6 × 250 mm, Part No. W21751W016 (Waters Corp, Milford, MA, USA) was used. The HPLC separation process was monitored by ChemStation for LC 3D systems (Agilent Technologies). Isocratic elution by a mixture of MeOH (HPLC grade, 72%) and H2O-HPLC Mili-Q grade (28%) as a mobile phase was used for the determination of capacity factor k. Isocratic elution by a mixture of MeOH (HPLC grade, 72%) and acetate-buffered saline (pH 7.4 and pH 6.5) (28%) as a mobile phase was used for the determination of distribution coefficient expressed as D7.4 and D6.5. The total flow of the column was 1.0 mL/min, injection was 20 μL, column temperature was 40 °C, and sample temperature was 10 °C. The detection wavelength of 210 nm was chosen. A KI methanolic solution was used for the determination of the dead times (tD). Retention times (tR) were measured in minutes. The capacity factors k were calculated according to the formula k = (tR − tD)/tD, where tR is the retention time of the solute, and tD is the dead time obtained using an unretained analyte. The distribution coefficients DpH were calculated according to the formula DpH = (tR − tD)/tD. Each experiment was repeated three times.

The subject of data set [2] is vancomycin-resistant E. faecalis VRE 342B. In words: In vitro antibacterial evaluation, MIC by microtitration broth method. The following applies: Enterococcus faecalis, 24 h.
The test system of a further data set is M. smegmatis ATCC 700084. In words: In vitro antimycobacterial evaluation, MIC (broth dilution micro-method). The data set is classed as cell-based, Mycobacterium smegmatis. As to conditions: Mycolicibacterium smegmatis, ATCC700084, 72 h; MS; three days, 37 °C; read-out: MIC. The protocol:
For M. smegmatis, the broth dilution micro-method in Middlebrook 7H9 medium (Difco) supplemented with ADC Enrichment (Difco) was used. […] Bacterial inocula were prepared by transferring colonies from culture to sterile water. The cell density was adjusted to 0.5 McFarland units using a densitometer (Densi-La-Meter, LIAP, Riga, Latvia). The final inoculum was made by 1:1000 dilution of the suspension with sterile water. Drug-free controls, sterility controls, and controls consisting of medium and DMSO alone were included. The determination of results was performed visually after three days of static incubation in the darkness at 37 °C in an aerobic atmosphere.

In data set [3] the test system is methicillin-resistant S. aureus 63718. Kind of data set: In vitro antibacterial evaluation, MIC by microtitration broth method. As to conditions: Staphylococcus aureus, 24 h.
The test system of data set [4] is Mycobacterium tuberculosis H37Ra/ATCC 25177. In words: In vitro antimycobacterial evaluation, MIC (alamarBlue). As to conditions: MT; 14 days, 37 °C.
In data set [5] the test system is methicillin-resistant S. aureus SA 3202. Kind of data set: Determination of minimum bactericidal concentrations (agar aliquot subculture). The following applies: Staphylococcus aureus.
For data set [6], the system named is methicillin-resistant S. aureus SA 630. Described as above. As to conditions: Staphylococcus aureus.
Data set [7] has as its system vancomycin-resistant E. faecalis VRE 368. Kind of data set: In vitro antibacterial evaluation, MIC by microtitration broth method. The following applies: Enterococcus faecalis, 24 h.
Data set [8] has as its system human monocytic leukemia cell line THP-1. Kind of data set: In vitro cell viability analysis (CCK-8). Type of data set: cell-based. As to conditions: ± SD, n = 6, medium with 10% FBS, 24 h. The protocol:
Human monocytic leukemia THP-1 cells obtained from the European Collection of Cell Cultures (ECACC, Salisbury, UK) were used for in vitro antiproliferative assays. They were routinely cultured in Roswell Park Memorial Institute RPMI 1640 medium supplemented with 10% fetal bovine serum (FBS), 2% L-glutamine, 1% penicillin, and streptomycin (all from Sigma-Aldrich) at 37 °C with 5% CO2. The cells were incubated in a complete medium (i.e., containing FBS) with test compounds at 37 °C with 5% CO2 for 24 h, similarly as we described previously. The effect of the test compounds dissolved in DMSO on cell viability was determined using a Cell Counting Kit-8 (CCK-8; Sigma) according to the manufacturer’s instructions.

The test system of data set [9] is Enterococcus faecalis ATCC 29212. Kind of data set: In vitro antibacterial evaluation, MIC by microtitration broth method. As to conditions: ATCC29212, 24 h.
Data set [10] has as its system methicillin-resistant S. aureus 63718. Kind of data set: Determination of minimum bactericidal concentrations (agar aliquot subculture). As to conditions: Staphylococcus aureus.
Data set [11] relates to Staphylococcus aureus ATCC 29213. The description is as above. As to conditions: ATCC29213.
Data set [12] shares this test system. Kind of data set: In vitro antibacterial evaluation, MIC by microtitration broth method. The following applies: ATCC29213, 24 h.
Data set [13] concerns methicillin-resistant S. aureus SA 630. The data set is described as above. As to conditions: Staphylococcus aureus, 24 h.
The test system of data set [14] is vancomycin-resistant E. faecalis VRE 725B. Described as above. As to conditions: Enterococcus faecalis, 24 h.
Data set [15] has as its system methicillin-resistant S. aureus SA 3202. The description is as above. The following applies: Staphylococcus aureus, 24 h.
For the next data set, the system named is S. aureus ATCC 29213. In words: MTT assay of bacterial viability (respiration). As to conditions: for Conc.: lowest multiple of MBC with at least 70% inhibition of S. aureus viability / Conc.: lowest multiple of MIC with at least 70% inhibition of S. aureus viability: MTT, 24 h.
A further data set has as its system S. aureus ATCC 29123. Kind of data set: Crystal violet uptake (membrane permeability). As to conditions: 4× MIC, 1 h; compared to growth control and 1% Tween 20.
In data set [16] the test system is vancomycin-resistant E. faecalis VRE 368. Kind of data set: Determination of minimum bactericidal concentrations (agar aliquot subculture). As to conditions: Enterococcus faecalis.
Data set [17] concerns vancomycin-resistant E. faecalis VRE 342B. The data set is described as above. The following applies: Enterococcus faecalis.
Data set [18] concerns Enterococcus faecalis ATCC 29212. The data set is described as above. As to conditions: ATCC29212.
Data set [19] deals with vancomycin-resistant E. faecalis VRE 725B. The data set is described as above. The following applies: Enterococcus faecalis.

Structures are written as SMILES. Values after ≈ are worked out from the molar mass of the structure shown. Bounds are passed on as bounds.

For `CCCC[C@H](NC(=O)c1cc(Cl)ccc1O)C(=O)Nc1ccc(C(F)(F)F)cc1` [3d, 5-Chloro-2-hydroxy-N-[(2S)-1-oxo-1-{[4-(trifluoromethyl)phenyl]amino}hexan-2-yl]benzamide], the “log D6.5” value in data set [1] came to 1.247. Also, the “log D7.4” value in [1] was found to be 1.213. Also, in [1], the log k was 1.322. Moreover, the MIC in data set [2] was more than 256 µg/mL; in the data set with M. smegmatis ATCC 700084 it was more than 256 µg/mL; in [3], 4.66 µM (≈ 2 µg/mL); in data set [4], “n.a. n.d. (n.a. = no activity (MIC > 256 µg/mL))”; in data set [7], more than 256 µg/mL; in [9], more than 256 µg/mL. The MIC is 0.583 µM (≈ 0.25 µg/mL) in [12], 2.33 µM (≈ 0.999 µg/mL) in data set [13], more than 256 µg/mL in data set [14] and 2.33 µM (≈ 0.999 µg/mL) in [15]. Further, the MBC in data set [5] came to 2.33 µM (≈ 0.999 µg/mL); in data set [6], 4.66 µM (≈ 2 µg/mL); in [10], 4.66 µM (≈ 2 µg/mL); in data set [11], 1.17 µM (≈ 0.502 µg/mL). For the same compound, the IC50 in data set [8] amounted to 4.5 ± 1.2 µM.

For `O=C(N[C@@H](CC1CCCCC1)C(=O)Nc1ccc(C(F)(F)F)cc1)c1cc(Cl)ccc1O` [3g, 5-Chloro-N-[(2S)-3-cyclohexyl-1-oxo-1-{[4-(trifluoromethyl)phenyl]amino}propan-2-yl]-2-hydroxybenzamide], the “log D6.5” value in data set [1] amounted to 1.615. Further, the “log D7.4” value in [1] is 1.576. In addition, the “averaged lipophilicity value of log k/log D6.5/log D7.4” value in data set [1] (average of the three experimental descriptors) was 1.62 ± 0.05. In data set [1], this compound showed a log k of 1.679. Also, the MIC in [2] was 546 µM; with M. smegmatis ATCC 700084, more than 256 µg/mL; in [3], 2.13 µM (≈ 0.999 µg/mL); in data set [4], “n.a. n.d. (n.a. = no activity (MIC > 256 µg/mL))”; in data set [7], 546 µM; in [9], 546 µM. Besides, the MIC stood at 1.07 µM (≈ 0.502 µg/mL) in data set [12], 1.07 µM (≈ 0.502 µg/mL) in data set [13], 546 µM in [14] and 1.07 µM (≈ 0.502 µg/mL) in [15]. Besides, the MBC in data set [5] came out at 1.07 µM (≈ 0.502 µg/mL); in data set [6] it was 2.13 µM (≈ 0.999 µg/mL); in data set [10], 2.13 µM (≈ 0.999 µg/mL); in [11], 1.07 µM (≈ 0.502 µg/mL). The “Conc.: lowest multiple of MBC with at least 70% inhibition of S. aureus viability” value with S. aureus ATCC 29213 was 0.5× MIC (0.5× MBC). For the same compound, the “Conc.: lowest multiple of MIC with at least 70% inhibition of S. aureus viability” value in the data set with S. aureus ATCC 29213 is 0.5× MIC (0.5× MBC). Moreover, the “S. aureus Viability Inhibition” value in the data set with S. aureus ATCC 29213 (at 0.5× MIC (0.5× MBC)) is listed as 95.2%. Further, the “viability of bacterial cells” value in the data set on S. aureus ATCC 29213 (at their MIC value or below) was “less than 70%”. The same compound had a concentration for half-maximal inhibition (IC50) in [8] of 1.4 ± 1.1 µM. Besides, the “effect on plasma membrane permeability (crystal violet uptake)” value with S. aureus ATCC 29123 is recorded as “did not affect plasma membrane permeability”.

With `O=C(N[C@@H](Cc1ccccc1)C(=O)Nc1ccc(C(F)(F)F)cc1)c1cc(Cl)ccc1O` [3h], the “log D6.5” value in data set [1] is recorded as 1.148. Further, the “log D7.4” value in data set [1] is 1.043. In data set [1], this compound came in with a log k of 1.192. Besides, the MIC in [2] was 277 µM; with M. smegmatis ATCC 700084, more than 256 µg/mL; in data set [3], 0.27 µM (≈ 0.125 µg/mL); in [4], “n.a. n.d. (n.a. = no activity (MIC > 256 µg/mL))”; in data set [7] it was 277 µM; in data set [9], 277 µM. For the same compound, the MIC in [12] is 1.08 µM (≈ 0.5 µg/mL); in [13], 1.08 µM (≈ 0.5 µg/mL); in data set [14] it was 277 µM; in [15] it was 2.16 µM (≈ 1 µg/mL). Further, the MBC in data set [5] came to 2.16 µM (≈ 1 µg/mL); in data set [6], 2.16 µM (≈ 1 µg/mL); in data set [10], 0.27 µM (≈ 0.125 µg/mL); in data set [11] it was 2.16 µM (≈ 1 µg/mL). For the same compound, the “Conc.: lowest multiple of MBC with at least 70% inhibition of S. aureus viability” value in the data set on S. aureus ATCC 29213 is 2× MIC (2× MBC). For the same compound, the “Conc.: lowest multiple of MIC with at least 70% inhibition of S. aureus viability” value with S. aureus ATCC 29213 was 2× MIC (2× MBC). Further, the “S. aureus Viability Inhibition” value in the data set on S. aureus ATCC 29213 (at 2× MIC (2× MBC)) stood at 94%. The same compound came in with an IC50 in data set [8] of 3.3 ± 1 µM. Moreover, the “effect on plasma membrane permeability (crystal violet uptake)” value in the data set with S. aureus ATCC 29123 is listed as “did not affect plasma membrane permeability”.

Turning to `CC1(C)S[C@@H]2[C@H](NC(=O)[C@H](N)c3ccccc3)C(=O)N2[C@H]1C(=O)O` [APC, ampicillin, reference compound], the MBC in [16] is 11.5 µM (≈ 4.02 µg/mL); in data set [17], 11.5 µM (≈ 4.02 µg/mL); in [5], more than 45.8 µM; in data set [6], more than 45.8 µM; in [10] it was more than 45.8 µM; in data set [11], more than 5.72 µM. In addition, the MBC in [18] amounted to 2.81 µM (≈ 0.982 µg/mL); in [19] it was 11.5 µM (≈ 4.02 µg/mL). The MIC in [2] came out at 11.5 µM; in data set [3], 45.8 µM (≈ 16 µg/mL); in [7], 11.5 µM; in data set [9] it was 2.81 µM; in data set [12] it was 5.72 µM (≈ 2 µg/mL); in data set [13] it was 45.8 µM (≈ 16 µg/mL). Besides, the MIC in [14] was 11.5 µM; in data set [15], 45.8 µM (≈ 16 µg/mL). Besides, the “Conc.: lowest multiple of MBC with at least 70% inhibition of S. aureus viability” value in the data set on S. aureus ATCC 29213 is listed as 8× MIC (>8× MBC). Moreover, the “Conc.: lowest multiple of MIC with at least 70% inhibition of S. aureus viability” value with S. aureus ATCC 29213 was 8× MIC (>8× MBC). In the data set with S. aureus ATCC 29213 (at 8× MIC (>8× MBC)), the “S. aureus Viability Inhibition” value was found to be 90.0%.
